# Reference: PMC9214538, “The M1 muscarinic receptor is present in situ as a ligand-regulated mixture of monomers and oligomeric complexes” (Proceedings of the National Academy of Sciences of the …, 2022)
# Like-named read-outs stand apart in the source and are kept apart here. Numbered stars: 1 amine (or outer) side, 2 acyl side, 3 side chain; on linkers, the order of the positions; unused ones are H or OH. Bridge positions count the residues as written; N and C are the ends. Square brackets hold non-standard residues; d marks the D form. Peptide text beside a SMILES is read from it. * marks the point of attachment. Leu(3R-OH,Nα-propionyl) = CCC(=O)N[C@H](C(=O)*)[C@H](O)C(C)C; X1 = CC(C)[C@@H](O[*:3])[C@H](N[*:1])C(=O)[*:2]; NMeT = CN[C@H](C(=O)O)[C@@H](C)O; dPhLac = O=C(O)[C@H](O)Cc1ccccc1; NMeA = CN[C@@H](C)C(=O)O; NMeDha = C=C(NC)C(=O)O
# Columns and labels:
# muscarinic receptor = assay: [^3H]NMS binding on intact primary neuronal cells; design: species or system mice; conditions: read-out: dissociation constant (Kd) of the radioligand
# Experimental: Primary neuronal cells were seeded at a density of 5 × 10^4 cells/well onto a 96-well plate and maintained at 37 °C in a 5% CO2 humidified atmosphere. On the sixth day in vitro, cells were washed twice with binding buffer (110 mM NaCl, 5.4 mM KCl, 1.8 mM CaCl2, 1 mM MgSO4, 25 mM glucose, 20 mM 4-(2-hydroxyethyl)-1-piperazineethanesulfonic acid [HEPES], 58 mM sucrose). A range of [^3H]NMS concentrations (between 0 and 10 nM) were added to appropriate wells containing buffer or 10-µM atropine to determine total and nonspecific binding in 100 µL of final-volume binding buffer. Plates were incubated for 2 h at 37 °C and the reactions were terminated by removal of the binding mixture followed by 3 × 200 µL/well ice-cold NaCl 0.9% washes. We added 100 µL/well of Microscint-20, and the plates were sealed before overnight incubation at room temperature on a rapidly shaking platform. Bound ligand was determined using a Packard Topcount NXT (Perkin-Elmer Life Sciences).
# [1] = target: muscarinic receptor (total muscarinic-receptor subtypes); assay: [^3H]NMS saturation binding on membrane preparations of cortex and hippocampus; design: species or system mice; conditions: mean ± SD, five animals
# Source text: We performed [^3H]NMS-binding studies on membrane preparations as described previously ([20]).
# [2] = system: hippocampal and cortical neurons; assay: Ca^2+ imaging (Fura-8 AM) in primary neuronal cultures; assay type: cell-based, mice; conditions: for elevation of [Ca^2+] / percentage of tested cells that responded to carbachol: 300 μM carbachol
# Experimental: Primary neuronal cells were plated onto precoated cover slides at a density of 5 × 10^5 and maintained at 37 °C in a 5% CO2 humidified atmosphere. On DIV7, cells were loaded with the calcium-sensitive dye Fura-8 AM; 3 µM Fura-8 was added to normal growth medium and the cells incubated at 37 °C for 30 min. Cells were then washed and incubated with HBSS with or without 1 µM FR900359 for 30 min. Coverslips were then placed into a microscope chamber containing HBSS and assays were performed as described previously ([46]).
# D3 dopamine receptor = system: D3 dopamine receptor; design: method as in PMID 28522847; conditions: ref [40]; cited from earlier work
# chemokine CXCR4 = conditions: ref [10], [41]; cited from earlier work
compound,measurement,setting,value
Nc1ncnc2c1ncn2[C@@H]1O[C@H](COP(=O)(O)OP(=O)(O)OP(=O)(O)O)[C@@H](O)[C@H]1O [adenosine triphosphate],elevation of intracellular [Ca^2+],"[2]; 10 μM ATP added after carbachol, cells from M1-KO mice",able to elicit rapid elevation of intracellular [Ca^2+]
C[N+](C)(C)CCOC(N)=O [carbachol],elevation of [Ca^2+],[2]; cells from M1-KO mice,did not promote a large increase of [Ca^2+]
same,elevation of [Ca^2+],[2]; neuronal cultures from WT and homozygous M1-mEGFP mice,promoted elevation of [Ca^2+]
same,percentage of tested cells that responded to carbachol,"[2]; neurons from M1-mEGFP mice, mean ± SD",36.7% ± 4.0%
same,percentage of tested cells that responded to carbachol,[2]; neurons from WT mice,26.8% ± 3.4%
O=C(CCCN1CCC2(CC1)C(=O)NCN2c1ccccc1)c1ccc(F)cc1 [spiperone],effect on dimers of the D3 dopamine receptor,D3 dopamine receptor,destabilize dimers of the D3 dopamine receptor
CC1(C)CN2C(CSC(=NC3CCCCC3)NC3CCCCC3)=CSC2=N1 [IT1t],effect on dimers of CXCR4,chemokine CXCR4,disrupt dimers of the chemokine CXCR4
"C=C1C(=O)N[C@@H](C)C(=O)N(C)[C@@H](C)C(=O)N[C@@H]([C@H](OC(=O)[C@@H](NC(=O)CC)[C@H](O)C(C)C)C(C)C)C(=O)N(C)[C@@H]([C@@H](C)OC)C(=O)O[C@H](C(C)C)[C@H](NC(C)=O)C(=O)O[C@H](Cc2ccccc2)C(=O)N1C [FR900359] (Ac-[X1][dPhLac][NMeDha]A[NMeA][X1](Leu(3R-OH,Nα-propionyl))[NMeT](Me); ester 1-C)",effect on carbachol-induced elevation of [Ca^2+],"[2]; pretreatment with 1 µM FR900359 for 30 min, P < 0.001",prevented
O=C(CCCN1CCC(O)(c2ccc(Cl)cc2)CC1)c1ccc(F)cc1 [haloperidol],effect on dimers of the D3 dopamine receptor,D3 dopamine receptor,destabilize dimers of the D3 dopamine receptor
